Laboratory results from article PMC6272970 (Molecules, 2016).
Values after ≈ are worked out from the molar mass of the structure shown.

How the values were obtained:
[1] = set-up: method as in PMID 11151743; settings: healthy volunteers, various dose levels; quercetin glucuronides and/or sulfates measured; cited from earlier work
[2] = Solubility trials of rutin in water, ethanol, methanol and NADES, quantified by HPLC-DAD; assay type: physicochemical; settings: 22 °C
Procedure: Samples were stirred on a magnetic stirrer (Stuart, Bibby Scientific Ltd., Stone, Staffordshire, UK) for one hour at room temperature and centrifuged for 21 min at 13,000 rpm with Eppendorf 5415 R centrifuge The time of one-hour stirring was chosen because it was sufficient for all the prepared mixtures to reach maximum concentration of rutin. […] Calibration curve was obtained injecting standard solution at different concentrations namely (50, 25, 10, 5 and 1 μg/mL) Calibration curve was as follows y = 17.832 x + 9.7822 (R^2 was 0.9998). Limit of Quantification was 1 μg/mL. For HPLC-DAD a series 1260 HPLC instrument (Agilent, Cernusco Sul Naviglio (MI), Italy) equipped with a quaternary pump, a diode-array detector, an auto sampler and a column oven compartment was used. Analyses were performed on Eclipse XDB C8 column (5 μm, 4.6 mm × 150 mm, Agilent). The mobile phase was (A) water-formic acid (99.9:0.1, v/v) and (B) acetonitrile. A gradient program was used as follows: [0 → 10[…] (60:40) 10 → 11[…] (0:100) 11 → 12[…] (0:100) 12 → 13[…] (90:10) 13 → 14[…] (90:10)]. The mobile phase flow rate was 1.2 mL/min and the injection volume was 10 μL. The chromatogram was recorded at 350 nm and spectral data for all peaks were obtained in the range of 190-400 nm. The retention time of rutin in the analysis conditions was 3.8 min.

[3] = set-up: method as in PMID 25030991; settings: rat plasma; 2.5 mg/kg sublingual vein administration; cited from earlier work

Compound: C[C@@H]1O[C@@H](OC[C@H]2O[C@@H](Oc3c(-c4ccc(O)c(O)c4)oc4cc(O)cc(O)c4c3=O)[C@H](O)[C@@H](O)[C@@H]2O)[C@H](O)[C@H](O)[C@H]1O [rutin]
- rutin in plasma after oral dosing [1]: no rutin was detectable
- solubility at 1 h ([2]; Citric Acid–Fructose 1:1 (NADES mixture 7), organic solvent or mixture, thermodynamic from solid, solvent mixture 7 Citric Acid–Fructose 1:1): 205 ± 5.1 µg/mL (≈ 336 µM)
- solubility at 1 h ([2]; Glucose–Citric Acid–Water 1:1:1 (NADES mixture 9), solvent mixture 9 Glucose–Citric Acid–Water 1:1:1): 175 ± 3.7 µg/mL (≈ 287 µM)
- solubility at 1 h ([2]; Glucose–Fructose–Sorbitol 1:1:1 (NADES mixture 6), organic solvent or mixture, thermodynamic from solid, solvent mixture 6 Glucose–Fructose–Sorbitol 1:1:1): 90.8 ± 1.9 µg/mL (≈ 149 µM)
- solubility at 1 h ([2]; Glucose–Fructose–Water 1:1:1 (NADES mixture 5), organic solvent or mixture, thermodynamic from solid, solvent mixture 5 Glucose–Fructose–Water 1:1:1): 81.9 ± 2.5 µg/mL (≈ 134 µM)
- solubility at 1 h ([2]; Proline–Glutamic Acid 1:1 (NADES mixture 10), solvent mixture 10 Proline–Glutamic Acid 1:1): 2260 ± 63.4 µg/mL (≈ 3700 µM)
- solubility at 1 h ([2]; Proline–Glutamic Acid 2:1 (NADES mixture 11), organic solvent or mixture, thermodynamic from solid, solvent mixture 11 Proline–Glutamic Acid 2:1): 2940 ± 118 µg/mL (≈ 4810 µM)
- solubility at 1 h ([2]; Tartaric Acid–Fructose 1:1 (NADES mixture 8), organic solvent or mixture, thermodynamic from solid, solvent mixture 8 Tartaric Acid–Fructose 1:1): 504 ± 16.4 µg/mL (≈ 826 µM)
- solubility at 1 h ([2]; ethanol, solvent Ethanol, mean ± SD of 3): 2370 ± 93.2 µg/mL (≈ 3880 µM)
- solubility at 1 h ([2]; methanol, solvent Methanol, mean ± SD of 3): 2050 ± 89.7 µg/mL (≈ 3360 µM)
- solubility at 1 h ([2]; natural deep eutectic solvent (NADES), organic solvent or mixture, thermodynamic from solid, solvent mixture 1 Urea–Glucose–Citric Acid 1:1:1): 379 ± 8.5 µg/mL (≈ 620 µM)
- solubility at 1 h ([2]; natural deep eutectic solvent (NADES), organic solvent or mixture, thermodynamic from solid, solvent mixture 2 Urea–Glucose–Fructose 1:1:1): 961 ± 30.6 µg/mL (≈ 1570 µM)
- solubility at 1 h ([2]; natural deep eutectic solvent (NADES), organic solvent or mixture, thermodynamic from solid, solvent mixture 3 Urea–Tartaric Acid 1:1): 680 ± 19 µg/mL (≈ 1110 µM)
- solubility at 1 h ([2]; natural deep eutectic solvent (NADES), organic solvent or mixture, thermodynamic from solid, solvent mixture 4 Urea–Choline chloride 1:1): 1880 ± 48.1 µg/mL (≈ 3080 µM)
- solubility at 1 h ([2]; natural deep eutectic solvent (NADES), organic solvent or mixture, thermodynamic from solid, solvent mixture 12 Proline–Oxalic Acid 1:1): 749 ± 22.5 µg/mL (≈ 1230 µM)
- solubility at 1 h ([2]; natural deep eutectic solvent (NADES), organic solvent or mixture, thermodynamic from solid, solvent mixture 14 Ornitine–Tartaric Acid 1:1): 210 ± 5.7 µg/mL (≈ 343 µM)
- solubility at 1 h ([2]; natural deep eutectic solvent (NADES), organic solvent or mixture, thermodynamic from solid, solvent mixture 15 Arginine–Tartaric Acid 1:1): 363 ± 11.2 µg/mL (≈ 594 µM)
- solubility at 1 h ([2]; natural deep eutectic solvent (NADES), organic solvent or mixture, thermodynamic from solid, solvent mixture 16 Citrulline–Tartaric Acid 1.1): 370 ± 13.1 µg/mL (≈ 607 µM)
- solubility at 1 h ([2]; natural deep eutectic solvent (NADES), organic solvent or mixture, thermodynamic from solid, solvent mixture 17 Arginine–Oxalic Acid 1:1): 414 ± 13.6 µg/mL (≈ 679 µM)
- solubility at 1 h ([2]; natural deep eutectic solvent (NADES), organic solvent or mixture, thermodynamic from solid, solvent mixture 18 Proline–Malic Acid 1:1): 900 ± 31.1 µg/mL (≈ 1470 µM)
- solubility at 1 h ([2]; natural deep eutectic solvent (NADES), organic solvent or mixture, thermodynamic from solid, solvent mixture 19 Arginin–Malic Acid 1:1): 457 ± 17.8 µg/mL (≈ 749 µM)
- solubility at 1 h ([2]; natural deep eutectic solvent (NADES), organic solvent or mixture, thermodynamic from solid, solvent mixture 20 Ornitine–Malic Acid 1:1): 408 ± 14.8 µg/mL (≈ 668 µM)
- solubility at 1 h ([2]; natural deep eutectic solvent (NADES), organic solvent or mixture, thermodynamic from solid, solvent mixture 21 Citrulline–Malic Acid 1:1): 454 ± 18.5 µg/mL (≈ 744 µM)
- solubility at 1 h ([2]; natural deep eutectic solvent (NADES), organic solvent or mixture, thermodynamic from solid, solvent mixture 22 Proline–Citric Acid 1:1): 672 ± 26.2 µg/mL (≈ 1100 µM)
- solubility at 1 h ([2]; natural deep eutectic solvent (NADES), organic solvent or mixture, thermodynamic from solid, solvent mixture 23 Arginine–Citric Acid 1:1): 414 ± 13.3 µg/mL (≈ 679 µM)
- solubility at 1 h ([2]; natural deep eutectic solvent (NADES), organic solvent or mixture, thermodynamic from solid, solvent mixture 24 Ornitine–Citric Acid1:1): 425 ± 17.2 µg/mL (≈ 696 µM)
- solubility at 1 h ([2]; natural deep eutectic solvent (NADES), organic solvent or mixture, thermodynamic from solid, solvent mixture 25 Citrulline–Citric Acid 1:1): 460 ± 14.4 µg/mL (≈ 753 µM)
- solubility at 1 h ([2]; natural deep eutectic solvent (NADES), organic solvent or mixture, thermodynamic from solid, solvent mixture 26 Proline–Glucose1:1): 879 ± 31.3 µg/mL (≈ 1440 µM)
- solubility at 1 h ([2]; natural deep eutectic solvent (NADES), organic solvent or mixture, thermodynamic from solid, solvent mixture 27 Proline–Fructose 1:1): 1560 ± 43.8 µg/mL (≈ 2560 µM)
- solubility at 1 h ([2]; natural deep eutectic solvent (NADES), organic solvent or mixture, thermodynamic from solid, solvent mixture 28 Proline–Choline Chloride 1:2): 2640 ± 101 µg/mL (≈ 4330 µM)
- solubility at 1 h ([2]; natural deep eutectic solvent (NADES), organic solvent or mixture, thermodynamic from solid, solvent mixture 29 Proline–Choline Chloride 1:3): 2800 ± 103 µg/mL (≈ 4580 µM)
- solubility at 1 h ([2]; natural deep eutectic solvent (NADES), organic solvent or mixture, thermodynamic from solid, solvent mixture 30 Choline Chloride–Malic Acid 1:1): 702 ± 22.3 µg/mL (≈ 1150 µM)
- solubility at 1 h ([2]; water, solvent Water, mean ± SD of 3): 120 ± 4.9 µg/mL (≈ 197 µM)
- maximum concentration [3]: 1659 ng/mL
- time of maximum concentration [3]: 5 min
